The values below come from US20210101881A1 (Ancureall Pharmaceutical (Shanghai) Co., Ltd., priority 2018, published 2021).

The subject of one assay is MOLM13 cells. The assay is described as follows: Growth inhibition of CDK9-positive cell line MOLM13 in vitro (CCK8/MTT assay). The assay is classed as cell-based, human. The following applies: Homo sapiens, MOLM-13; MOLM13 cells, cultured 3 to 6 days, CCK8; read-out: IC50 of the compound for inhibiting cell growth, MOLM13 cells.
In general, IC50 refers to the concentration that inhibits the measured activity by half. As to `CN(C)CCCN(C)c1ccc(Nc2nccc(-n3cc(C(N)=O)c4ccccc43)n2)cc1` [Compound 76, 1-(2-{4-[(3-dimethylamino-propyl)-methyl-amino]-phenylamino}-pyrimidin-4-yl)-1H-indole-3-carboxamide], the IC50 lay in the range of 10 to 100 nM. On to `NC(=O)c1cn(-c2ccnc(Nc3ccc(OCCN4CCOCC4)cc3)n2)c2ccccc12` [Compound 21, 1-{2-[4-(2-morpholin-4-yl-ethoxy)-phenylamino]-pyrimidin-4-yl}-1H-indole-3-carboxamide], for which the concentration for half-maximal inhibition (IC50) lay within 10 to 100 nM. Same read-out and setting: the value for `C=CC(=O)N1CCN(c2cccc(Nc3nccc(-n4cc(C(N)=O)c5ccccc54)n3)c2)CC1` [Compound 127, 1-{2-[3-(4-acryloyl-piperazin-1-yl)-phenylamino]-pyrimidin-4-yl}-1H-indole-3-carboxamide] was 10 to 100 nM. Same read-out and setting: the value for `COc1cc(Nc2ncc(Cl)c(-n3cc(C(N)=O)c4ccccc43)n2)ccc1N(C)CCN(C)C` [Compound 87, 1-(2-{4-[(2-dimethylamino-ethyl)-methyl-amino]-3-methoxy-phenylamino}-5-chloro-pyrimidin-4-yl)-1H-indole-3-carboxamide] was 1 to 10 nM. Same read-out and setting: the value for `CN(C)CCN1CCN(c2ccc(Nc3nccc(-n4cc(C(N)=O)c5ccccc54)n3)cc2F)CC1` [Compound 63, 1-(2-{4-[4-(2-dimethylamino-ethyl)-piperazin-1-yl]-3-fluoro-phenylamino}-pyrimidin-4-yl)-1H-indole-3-carboxamide] was 1 to 10 nM; that for `NC(=O)c1cn(-c2nc(Nc3ccc(N4CCNCC4)cc3)ncc2F)c2ccccc12` [Compound 35, 1-[5-fluoro-2-(4-piperazin-1-yl-phenylamino)-pyrimidin-4-yl]-1H-indole-3-carboxamide] was below 1 nM. Consider `COc1cnc(Nc2ccc(N3CCNCC3)cc2)nc1-n1cc(C(N)=O)c2ccccc21` [Compound 36, 1-[5-methoxy-2-(4-piperazin-1-yl-phenylamino)-pyrimidin-4-yl]-1H-indole-3-carboxamide], for which the IC50 is 1 to 10 nM. As to `CN1CCN(c2cc(F)cc(Nc3nccc(-n4cc(C(N)=O)c5ccccc54)n3)c2)CC1` [Compound 114, 1-{2-[3-fluoro-5-(4-methyl-piperazin-1-yl)-phenylamino]-pyrimidin-4-yl}-1H-indole-3-carboxamide], the IC50 lay within 1 to 10 nM.

Take `CCN1CCN(c2cccc(Nc3ncc(F)c(-n4cc(C(N)=O)c5cc(OCCN6CCOCC6)ccc54)n3)c2)CC1` [Compound 168, 1-{2-[3-(4-ethyl-piperazin-1-yl)-phenylamino]-5-fluoro-pyrimidin-4-yl}-5-(2-morpholin-4-yl-ethoxy)-1H-indole-3-carboxamide]: the concentration for half-maximal inhibition (IC50) fell in the range of 10 to 100 nM.

Turning to `Cc1cc(Nc2ncc(F)c(-n3cc(C(N)=O)c4ccccc43)n2)ccc1N1CCN(C(C)C)CC1` [Compound 59, 1-{5-fluoro-2-[4-(4-isopropyl-piperazin-1-yl)-3-methyl-phenylamino]-pyrimidin-4-yl}-1H-indole-3-carboxamide], the IC50 fell in the range of 1 to 10 nM. Regarding `COc1cc(Nc2ncc(F)c(-n3cc(C(N)=O)c4ccccc43)n2)ccc1N1CCNCC1` [Compound 40, 1-[5-fluoro-2-(3-methoxy-4-piperazin-1-yl-phenylamino)-pyrimidin-4-yl]-1H-indole-3-carboxamide], the IC50 was below 1 nM. `NC(=O)c1cn(-c2ccnc(Nc3ccc(N4CCNCC4)cc3)n2)c2c(F)cccc12` [Compound 31, 7-fluoro-1-[2-(4-piperazin-1-yl-phenylamino)-pyrimidin-4-yl]-1H-indole-3-carboxamide]: the IC50 is 10 to 100 nM.

Take `Cc1cc(Nc2nccc(-n3cc(C(N)=O)c4ccccc43)n2)ccc1N1CCC(N(C)C)CC1` [Compound 68, 1-{2-[4-(4-dimethylamino-piperidin-1-yl)-3-methyl-phenylamino]-pyrimidin-4-yl}-1H-indole-3-carboxamide]: the IC50 was in the range of 1 to 10 nM.

Turning to `CC(O)CN1CCN(c2cccc(Nc3ncc(F)c(-n4cc(C(N)=O)c5ccccc54)n3)c2)CC1` (stereo not shown) [Compound 155, 1-(5-fluoro-2-{3-[4-(2-hydroxy-propyl)-piperazin-1-yl]-phenylamino}-pyrimidin-4-yl)-1H-indole-3-carboxamide], the IC50 was 1 to 10 nM.

As for `CC(=O)N1CCN(c2cccc(Nc3ncc(F)c(-n4cc(C(N)=O)c5ccccc54)n3)c2)CC1` [Compound 165, 1-{2-[3-(4-acetyl-piperazin-1-yl)-phenylamino]-5-fluoro-pyrimidin-4-yl}-1H-indole-3-carboxamide], the half-maximal inhibitory concentration (IC50) was 10 to 100 nM.

For the compound `CN1CCN(c2ccc(Nc3nccc(-n4cc(C(N)=O)c5ccccc54)n3)cc2F)CC1` [Compound 46, 1-{2-[3-fluoro-4-(4-methyl-piperazin-1-yl)-phenylamino]-pyrimidin-4-yl}-1H-indole-3-carboxamide], the IC50 was in the range of 1 to 10 nM. For the compound `CN(CCN1CCOCC1)c1ccc(Nc2nccc(-n3cc(C(N)=O)c4ccccc43)n2)cc1` [Compound 72, 1-(2-{4-[methyl-(2-morpholin-4-ethyl)-amino]-phenylamino}-pyrimidin-4-yl)-1H-indole-3-carboxamide], the half-inhibitory concentration (IC50) fell in the range of 10 to 100 nM. For `NC(=O)c1cn(-c2nc(Nc3cccc(N4CCN(C5CCOC5)CC4)c3)ncc2F)c2ccccc12` (stereo not shown) [Compound 150, 1-(5-fluoro-2-{3-[4-(tetrahydro-furan-3-yl)-piperazin-1-yl]-phenylamino}-pyrimidin-4-yl)-1H-indole-3-carboxamide], the IC50 lay in the range of 1 to 10 nM. Same read-out and setting: the value for `CN(C)CCN(C)c1ccc(Nc2nccc(-n3cc(C(N)=O)c4ccccc43)n2)cc1` [Compound 77, 1-(2-{4-[(2-dimethylamino-ethyl)-methyl-amino]-phenylamino}-pyrimidin-4-yl)-1H-indole-3-carboxamide] was 10 to 100 nM; that for `CN(C)CCCN(C)c1ccc(Nc2nccc(-n3cc(C(N)=O)c4ccccc43)n2)cc1Cl` [Compound 83, 1-(2-{3-chloro-4-[(3-dimethylamino-propyl)-methyl-amino]-phenylamino}-pyrimidin-4-yl)-1H-indole-3-carboxamide] was 10 to 100 nM. For `CCN1CCN(c2cccc(Nc3ncc(F)c(-n4cc(C(N)=O)c5cc(OCCOC)ccc54)n3)c2)CC1` [Compound 164, 1-{2-[3-(4-ethyl-piperazin-1-yl)-phenylamino]-5-fluoro-pyrimidin-4-yl}-5-(2-methoxy-ethoxy)-1H-indole-3-carboxamide], the IC50 fell in the range of 1 to 10 nM. As for `CN1CCN(c2c(F)cc(Nc3nccc(-n4cc(C(N)=O)c5ccccc54)n3)cc2F)CC1` [Compound 47, 1-{2-[3,5-difluoro-4-(4-methyl-piperazin-1-yl)-phenylamino]-pyrimidin-4-yl}-1H-indole-3-carboxamide], the IC50 was 10 to 100 nM.

As to `Cc1cc(Nc2nccc(-n3cc(C(N)=O)c4ccccc43)n2)ccc1N1CCN(C(C)C)CC1` [Compound 51, 1-{2-[4-(4-isopropyl-piperazin-1-yl)-3-methyl-phenylamino]-pyrimidin-4-yl}-1H-indole-3-carboxamide], the IC50 lay in the range of 1 to 10 nM.

Regarding `Cc1ccc(Nc2ncc(F)c(-n3cc(C(N)=O)c4ccccc43)n2)cc1N1CCN(C)CC1` [Compound 117, 1-{5-fluoro-2-[4-methyl-3-(4-methyl-piperazin-1-yl)-phenylamino]-pyrimidin-4-yl}-1H-indole-3-carboxamide], the IC50 lay within 10 to 100 nM.

In the case of `NC(=O)c1cn(-c2ccnc(Nc3ccc(N4CCNCC4)cn3)n2)c2ccccc12` [Compound 133, 1-[2-(5-piperazin-1-yl-pyridin-2-ylamino)-pyrimidin-4-yl]-1H-indole-3-carboxamide], the IC50 is above 1000 nM. With `COc1ccc2c(c1)c(C(N)=O)cn2-c1nc(Nc2cccc(N3CCN(C(C)C)CC3)c2)ncc1F` [Compound 159, 1-{5-fluoro-2-[3-(4-isopropyl-piperazin-1-yl)-phenylamino]-pyrimidin-4-yl}-5-methoxy-1H-indole-3-carboxamide], the half-maximal inhibitory concentration (IC50) lay within 1 to 10 nM. As to `NC(=O)c1cn(-c2nc(Nc3cccc(N4CCNCC4)c3)ncc2F)c2ccccc12` [Compound 146], the IC50 is 10 to 100 nM. With `Cc1cnc(Nc2ccc(N3CCNCC3)cc2)nc1-n1cc(C(N)=O)c2ccccc21` [Compound 37, 1-[5-methyl-2-(4-piperazin-1-yl-phenylamino)-pyrimidin-4-yl]-1H-indole-3-carboxamide], the IC50 was in the range of 1 to 10 nM. `COc1ccc(Nc2nccc(-n3cc(C(N)=O)c4ccccc43)n2)cc1OC` [Compound 5, 1-[2-(3,4-methoxy-phenylamino)-pyrimidin-4-yl]-1H-indole-3-carboxamide]: the 50% inhibitory concentration (IC50) is above 1000 nM. Regarding `COc1cc(Nc2ncc(F)c(-n3cc(C(N)=O)c4ccccc43)n2)ccc1N(C)CCN(C)C` [Compound 86, 1-(2-{4-[(2-dimethylamino-ethyl)-methyl-amino]-3-methoxy-phenylamino}-5-fluoro-pyrimidin-4-yl)-1H-indole-3-carboxamide], the IC50 was in the range of 1 to 10 nM.

On to `Cc1ccc(Nc2ncc(Cl)c(-n3cc(C(N)=O)c4ccccc43)n2)cc1N1CCN(C)CC1` [Compound 121, 1-{5-chloro-2-[4-methyl-3-(4-methyl-piperazin-1-yl)-phenylamino]-pyrimidin-4-yl}-1H-indole-3-carboxamide], for which the IC50 was in the range of 10 to 100 nM.

For the compound `NC(=O)c1cn(-c2nc(Nc3cccc(N4CCN(C(=O)C5CCOCC5)CC4)c3)ncc2F)c2ccccc12` [Compound 166, 1-(5-Fluoro-2-{3-[4-(tetrahydro-pyran-4-carbonyl)-piperazin-1-yl]-phenylamino}-pyrimidin-4-yl)-1H-indole-3-carboxamide], the IC50 was 10 to 100 nM.

As for `NC(=O)c1cn(-c2nc(Nc3ccc(N4CCNCC4)cc3)ncc2Cl)c2ccccc12` [Compound 34, 1-[5-chloro-2-(4-piperazin-1-yl-phenylamino)-pyrimidin-4-yl]-1H-indole-3-carboxamide], the half-inhibitory concentration (IC50) is below 1 nM.

Still in this assay, the particulars now being: MOLM13 cells, cultured 3 to 6 days, CCK8; read-out: IC50 of the compound for inhibiting cell growth, MOLM13 cells.
As to `CNC(=O)c1cn(-c2ccnc(Nc3cccc(N4CCN(C)CC4)c3)n2)c2ccccc12` [Compound 106, 1-{2-[3-(4-methyl-piperazin-1-yl)-phenylamino]-pyrimidin-4-yl}-1H-indole-3-carboxmethylamide], the half-inhibitory concentration (IC50) lay within 10 to 100 nM.
